# Measurements reported in PMC12207360, “Hyperpolarization Modulation of the T‐Type hCav3.2 Channel by Human Synenkephalin [1–53], a Shrew Neurotoxin Analogue without Paralytic Effects” (Angewandte Chemie (International Ed. in English), 2025).
# Where no end group is shown, it is not given here.
# Legend:
# [1] = test system: mealworms (larva of Zophobas atratus); experiment: Mealworm paralysis bioassay, i.p. injection; assay type: in vivo; settings: for Paralyzed/total numbers: 100 µL per 1 g bodyweight, immediate lower-body paralysis
# Experimental: Paralytic activity against mealworms was examined by using synthetic 2 dissolved in saline with mealworms (larva of Zophobas atratus, body weight: 0.7–1.0 g), as described previously.28 Synthetic hSYN was injected into the abdomen of mealworms and observed immediate lower-body paralysis (injection volume: 100 μL per 1.0 g mealworm bodyweight).
# Phosphate buffered saline (PBS) was used as a control. […]
# HEPES. The patch pipettes were ﬁlled with solution containing 130 mM CsCl, 10 mM EGTA, 3 mM Mg–AT P, a n d 0 . 4 m M […]
# Circular dichroism spectrometry and stereostructure prediction of hSYN. […]
# In brief, synthetic hSYN [1–53] (2) was dissolved in 50 mM KHPO4, pH 7.0 (ﬁnal concentration: 20 μM) in a 1 mm pathlength cell. The spectrum consisted of ﬁve scans acquired with a scan rate of 20 nm/min and a digital integration time of 2 sec. […]
# Schrödinger, LLC) was used for calculation of surface charge and final image processing which suitable for scientific
# [2] = assay type: physicochemical; settings: cysteine/cystine redox condition, 20% EtOH / 0.1 M aq. NH4OAc, pH 8.5, 37 °C; misfolded products predominantly converted to 2
# Source text: We first examined the preparation of hSYN from the linear precursor peptide 1 (Scheme 1a). Oxidation of 1 in air or with DMSO gave only misfolded analogues with two (2SS) and/or three (3SS) disulfide bonds (Figure S1a,b). Meanwhile, a redox condition using cysteine / cystine in EtOH / aq. NH4OAc^[ [51] ^] smoothly promoted the formation of three disulfide bonds to afford hSYN (2) in 65% yield almost as a single isomer, along with trace amounts of misfolded 3SS analogue. […]
# SH 前述の 22 の混合物に、前述のバッファーSHB (290 µL; 第四章第一節第四項) に溶解したSH 21SH
# N-terminal segment(7.2 mg, 2.1 µmol) と TCEP-HCl (0.32 mg, 1.1 µmol) C-terminal segmentを加えた。6 M 水酸化ナトリウム水溶液1 で反応溶液を pH 7.0 に調整した後、室温で 22 時間攪拌した。得られた混合物を ODS カ
# ラムクロマトグラフィー [COSMOSIL 75 C18 OPN (φ 8 x 8 mm), MeCN / H2O (0.1% TFA) = 0:1 Linear peptide 1. […]
# rate 1.0 mL/min, UV 215 nm (A; 0.1% aq. TFA, B; 0.08% TFA/MeCN) ]. MS (MALDI-TO F ) m/z 3001.0 (calculated for […]
# 2: tR 12.2 min [Develosil® ODS HG-5 (5 µm, f 4.6 mm × 250 mm), temp. […] 40 °C, 25% for 10 min and 25–45% linear gradient for 20 min, flow rate […], UV215 nm (A; 0.1% aq. TFA, B; 0.08% TFA/MeCN), see Figure S7]; MS (MALDI-TO F ) m/z 2998.0 (calculated […]
substance,measurement,setting,value
"human synenkephalin [1–53] (ECSQDCATCSYRLVRPADINFLACVMECEGKLPSLKIWETCKELLQLSKPELP; disulfide (positions not given here); also: Type II disulfides, places not given here; UniProt P01210 25-77, looked up, fragment) [compound 2, human synenkephalin N-terminal part [1–53], three disulfide bonds Cys(I)–Cys(V), Cys(II)–Cys(IV), Cys(III)–Cys(VI)]",Paralyzed/total numbers,[1]; 5.0 µg/g bodyweight,0/4
same,Paralyzed/total numbers,[1]; 15 µg/g bodyweight,0/3
same,Paralyzed/total numbers,[1]; 50 µg/g bodyweight,0/4
same,paralytic effect on mealworms,[1]; even at 50 µg g−1 body weight,no paralytic effects on mealworms
same,thermodynamic stability,[2],most thermodynamically stable
